These are literature values, as cited in patent US8354502B2, “Bioactive peptides identified in enzymatic hydrolyzates of milk caseins and method of obtaining same” (Consejo Superior de Investigaciones Cientificas, priority 2005, dated 2013).

This data set addresses T1, angiotensin-converting enzyme (ACE) (Oryctolagus cuniculus, UniProt P12822).
T1 sequence (P12822 34-1310): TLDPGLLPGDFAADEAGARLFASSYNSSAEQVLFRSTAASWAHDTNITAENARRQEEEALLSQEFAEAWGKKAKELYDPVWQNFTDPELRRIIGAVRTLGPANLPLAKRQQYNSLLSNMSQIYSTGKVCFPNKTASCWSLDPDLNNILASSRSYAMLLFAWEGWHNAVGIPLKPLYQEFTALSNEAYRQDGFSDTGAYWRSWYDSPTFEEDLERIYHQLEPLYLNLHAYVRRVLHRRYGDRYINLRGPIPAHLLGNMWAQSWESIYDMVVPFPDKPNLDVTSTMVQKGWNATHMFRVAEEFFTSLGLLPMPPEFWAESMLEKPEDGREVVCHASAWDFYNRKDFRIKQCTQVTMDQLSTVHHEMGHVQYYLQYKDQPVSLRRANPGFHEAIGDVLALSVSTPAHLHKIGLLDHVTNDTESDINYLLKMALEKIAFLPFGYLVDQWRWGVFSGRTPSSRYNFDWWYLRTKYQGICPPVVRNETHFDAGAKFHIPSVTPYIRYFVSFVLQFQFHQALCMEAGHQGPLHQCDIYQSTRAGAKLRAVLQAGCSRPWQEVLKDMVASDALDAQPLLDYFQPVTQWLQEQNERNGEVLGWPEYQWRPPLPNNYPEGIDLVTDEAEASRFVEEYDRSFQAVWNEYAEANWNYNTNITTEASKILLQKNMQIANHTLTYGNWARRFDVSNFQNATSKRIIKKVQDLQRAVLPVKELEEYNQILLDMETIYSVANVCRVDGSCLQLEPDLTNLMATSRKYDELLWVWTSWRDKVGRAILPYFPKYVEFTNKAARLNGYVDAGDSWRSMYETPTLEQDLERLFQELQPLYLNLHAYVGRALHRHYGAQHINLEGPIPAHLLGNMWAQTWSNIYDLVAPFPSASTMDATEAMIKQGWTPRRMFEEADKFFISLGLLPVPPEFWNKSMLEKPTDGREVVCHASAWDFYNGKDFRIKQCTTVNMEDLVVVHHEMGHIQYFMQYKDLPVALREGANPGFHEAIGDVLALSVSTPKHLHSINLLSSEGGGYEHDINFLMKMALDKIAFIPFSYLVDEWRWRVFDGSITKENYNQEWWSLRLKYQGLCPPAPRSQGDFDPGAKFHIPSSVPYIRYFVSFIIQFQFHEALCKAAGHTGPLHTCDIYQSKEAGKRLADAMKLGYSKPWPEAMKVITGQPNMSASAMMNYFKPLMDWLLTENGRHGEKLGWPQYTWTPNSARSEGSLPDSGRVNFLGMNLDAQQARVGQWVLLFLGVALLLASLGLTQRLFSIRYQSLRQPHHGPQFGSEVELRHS
Particulars: peptides from Manchego cheese, Gómez-Ruiz et al. 2004; read-out: ACE-inhibitory activity IC50; cited from earlier work.

Take “VRYL [SEQ. ID. No. 11, previously identified 205-208 fragment of ovine αs2-casein from Manchego cheese]”: the IC50 (in general, the point on the concentration scale where inhibition reaches its midpoint) was 24.1 µM.
